Data: PubChem BioAssay AID256 (DTP/NCI, 2004)
“And” between values parts separate entries of the source, which are not always exact repeats. Equal entries are not always repeated. Toxic doses and inconclusive results are not listed.

Test system: CD2F1 mice, L1210 leukemia ip, survival T/C
Assay: NCI In Vivo Anticancer Drug Screen. Data for tumor model L1210 Leukemia (intraperitoneal) in CD2F1 (CDF1) mice
Settings: higher = longer survival
Outline: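 In this screen, transplantable tumors were grown in mice given either the compound or its vehicle. Results were expressed as the treated measurement relative to the control measurement.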

[1] = endpoint: mean survival time, dose: 12.5 mg/kg/injection, schedule: Q01DX009 (ip), vehicle: saline
[2] = endpoint: mean survival time, dose: 25.0 mg/kg/injection, schedule: Q01DX009 (ip), vehicle: saline
[3] = endpoint: mean survival time, dose: 100.0 mg/kg/injection, schedule: Q01DX001 (ip), vehicle: saline
[4] = endpoint: mean survival time, dose: 400.0 mg/kg/injection, schedule: Q01DX001 (ip), vehicle: saline

O=[N+]([O-])O.[Sc]
T/C (endpoint: mean survival time, dose: 6.25 mg/kg/injection, schedule: Q01DX009 (ip), vehicle: saline): 93 % of control
T/C [1]: 90 % of control
T/C [2]: 88 % of control
T/C [3]: 100 % of control
T/C [4]: 93 % of control

CCCCCCCCCOc1ccc(Cl)cc1
T/C (endpoint: mean survival time, dose: 25.0 mg/kg/injection, schedule: Q04DX002 (ip), vehicle: saline with Tween-80): 95 % of control
T/C (endpoint: mean survival time, dose: 50.0 mg/kg/injection, schedule: Q04DX002 (ip), vehicle: saline with Tween-80): 100 % of control
T/C (endpoint: mean survival time, dose: 100.0 mg/kg/injection, schedule: Q04DX002 (ip), vehicle: saline with Tween-80): 90 % of control and 95 % of control
T/C (endpoint: mean survival time, dose: 400.0 mg/kg/injection, schedule: Q04DX002 (ip), vehicle: saline with Tween-80): 93 % of control

ICC(CI)(CI)CI
T/C (endpoint: mean survival time, dose: 100.0 mg/kg/injection, schedule: Q01DX001 (ip), vehicle: saline with Tween-80): 100 % of control
T/C (endpoint: mean survival time, dose: 200.0 mg/kg/injection, schedule: Q01DX001 (ip), vehicle: saline with Tween-80): 93 % of control
T/C (endpoint: mean survival time, dose: 400.0 mg/kg/injection, schedule: Q01DX001 (ip), vehicle: saline with Tween-80): 100 % of control

Cc1c2ccncc2c(C)c2c1[nH]c1ccccc12
T/C (endpoint: mean survival time, dose: 2.0 mg/kg/injection, schedule: Q01DX009 (ip), vehicle: saline with Tween-80): 113 % of control and 114 % of control and 105 % of control
T/C (endpoint: mean survival time, dose: 3.13 mg/kg/injection, schedule: Q01DX009 (ip), vehicle: water): 119 % of control
T/C (endpoint: mean survival time, dose: 4.0 mg/kg/injection, schedule: Q01DX009 (ip), vehicle: saline with Tween-80): 122 % of control and 124 % of control
T/C (endpoint: mean survival time, dose: 6.25 mg/kg/injection, schedule: Q01DX009 (ip), vehicle: other): 157 % of control
T/C (endpoint: mean survival time, dose: 6.25 mg/kg/injection, schedule: Q01DX009 (ip), vehicle: water): 151 % of control
T/C (endpoint: mean survival time, dose: 6.25 mg/kg/injection, schedule: Q01DX009 (oral), vehicle: other): 116 % of control
T/C (endpoint: mean survival time, dose: 6.25 mg/kg/injection, schedule: Q01DX009 (oral), vehicle: saline): 117 % of control
T/C (endpoint: mean survival time, dose: 6.25 mg/kg/injection, schedule: Q01DX009 (oral), vehicle: water): 123 % of control
T/C (endpoint: mean survival time, dose: 6.25 mg/kg/injection, schedule: Q04DX003 (ip), vehicle: other): 112 % of control
T/C (endpoint: mean survival time, dose: 6.25 mg/kg/injection, schedule: Q04DX003 (ip), vehicle: water): 108 % of control
T/C (endpoint: mean survival time, dose: 10.0 mg/kg/injection, schedule: Q01DX001 (ip), vehicle: water): 104 % of control
T/C (endpoint: mean survival time, dose: 10.0 mg/kg/injection, schedule: Q01DX009 (ip), vehicle: saline with Tween-80): 153 % of control
T/C (endpoint: mean survival time, dose: 10.0 mg/kg/injection, schedule: Q04DX003 (ip), vehicle: saline with Tween-80): 123 % of control
T/C (endpoint: mean survival time, dose: 12.5 mg/kg/injection, schedule: Q01DX009 (ip), vehicle: other): 198 % of control
T/C [1]: 180 % of control
T/C (endpoint: mean survival time, dose: 12.5 mg/kg/injection, schedule: Q01DX009 (ip), vehicle: water): 208 % of control
T/C (endpoint: mean survival time, dose: 12.5 mg/kg/injection, schedule: Q01DX009 (oral), vehicle: saline): 109 % of control
T/C (endpoint: mean survival time, dose: 12.5 mg/kg/injection, schedule: Q04DX003 (ip), vehicle: distilled water + Tween-80): 111 % of control
T/C (endpoint: mean survival time, dose: 12.5 mg/kg/injection, schedule: Q04DX003 (ip), vehicle: saline with Tween-80): 123 % of control
T/C (endpoint: mean survival time, dose: 12.5 mg/kg/injection, schedule: Q04DX003 (ip), vehicle: water): 122 % of control and 124 % of control
T/C (endpoint: mean survival time, dose: 12.5 mg/kg/injection, schedule: Q04DX003 (oral), vehicle: other): 103 % of control and 108 % of control
T/C (endpoint: mean survival time, dose: 12.5 mg/kg/injection, schedule: Q04DX003 (oral), vehicle: saline): 113 % of control and 107 % of control
T/C (endpoint: mean survival time, dose: 12.5 mg/kg/injection, schedule: Q04DX003 (oral), vehicle: water): 114 % of control and 109 % of control
T/C (endpoint: mean survival time, dose: 20.0 mg/kg/injection, schedule: Q01DX001 (ip), vehicle: water): 104 % of control
T/C (endpoint: mean survival time, dose: 20.0 mg/kg/injection, schedule: Q01DX009 (ip), vehicle: saline with Tween-80): 188 % of control and 205 % of control
T/C (endpoint: mean survival time, dose: 20.0 mg/kg/injection, schedule: Q04DX003 (ip), vehicle: saline with Tween-80): 157 % of control
T/C (endpoint: mean survival time, dose: 25.0 mg/kg/injection, schedule: Q01DX009 (ip), vehicle: other): 118 % of control
T/C [2]: 218 % of control
T/C (endpoint: mean survival time, dose: 25.0 mg/kg/injection, schedule: Q01DX009 (ip), vehicle: water): 100 % of control
T/C (endpoint: mean survival time, dose: 25.0 mg/kg/injection, schedule: Q01DX009 (oral), vehicle: other): 163 % of control
T/C (endpoint: mean survival time, dose: 25.0 mg/kg/injection, schedule: Q01DX009 (oral), vehicle: water): 159 % of control
T/C (endpoint: mean survival time, dose: 25.0 mg/kg/injection, schedule: Q04DX003 (ip), vehicle: distilled water + Tween-80): 121 % of control
T/C (endpoint: mean survival time, dose: 25.0 mg/kg/injection, schedule: Q04DX003 (ip), vehicle: saline): 156 % of control
T/C (endpoint: mean survival time, dose: 25.0 mg/kg/injection, schedule: Q04DX003 (ip), vehicle: water): 157 % of control and 190 % of control
T/C (endpoint: mean survival time, dose: 25.0 mg/kg/injection, schedule: Q04DX003 (oral), vehicle: other): 116 % of control
T/C (endpoint: mean survival time, dose: 25.0 mg/kg/injection, schedule: Q04DX003 (oral), vehicle: saline): 116 % of control and 118 % of control
T/C (endpoint: mean survival time, dose: 25.0 mg/kg/injection, schedule: Q04DX003 (oral), vehicle: water): 116 % of control
T/C (endpoint: mean survival time, dose: 32.0 mg/kg/injection, schedule: Q01DX009 (ip), vehicle: saline with Tween-80): 182 % of control
T/C (endpoint: mean survival time, dose: 40.0 mg/kg/injection, schedule: Q01DX009 (ip), vehicle: saline with Tween-80): 153 % of control
T/C (endpoint: mean survival time, dose: 40.0 mg/kg/injection, schedule: Q04DX003 (ip), vehicle: saline with Tween-80): 182 % of control and 202 % of control
T/C (endpoint: mean survival time, dose: 50.0 mg/kg/injection, schedule: Q01DX009 (ip), vehicle: other): 92 % of control
T/C (endpoint: mean survival time, dose: 50.0 mg/kg/injection, schedule: Q01DX009 (ip), vehicle: saline): 185 % of control
T/C (endpoint: mean survival time, dose: 50.0 mg/kg/injection, schedule: Q01DX009 (ip), vehicle: water): 87 % of control
T/C (endpoint: mean survival time, dose: 50.0 mg/kg/injection, schedule: Q01DX009 (oral), vehicle: saline): 152 % of control
T/C (endpoint: mean survival time, dose: 50.0 mg/kg/injection, schedule: Q01DX009 (oral), vehicle: water): 107 % of control
T/C (endpoint: mean survival time, dose: 50.0 mg/kg/injection, schedule: Q04DX003 (ip), vehicle: distilled water + Tween-80): 156 % of control
T/C (endpoint: mean survival time, dose: 50.0 mg/kg/injection, schedule: Q04DX003 (ip), vehicle: saline with Tween-80): 119 % of control
T/C (endpoint: mean survival time, dose: 50.0 mg/kg/injection, schedule: Q04DX003 (ip), vehicle: saline): 177 % of control
T/C (endpoint: mean survival time, dose: 50.0 mg/kg/injection, schedule: Q04DX003 (ip), vehicle: water): 186 % of control
T/C (endpoint: mean survival time, dose: 50.0 mg/kg/injection, schedule: Q04DX003 (oral), vehicle: other): 153 % of control
T/C (endpoint: mean survival time, dose: 50.0 mg/kg/injection, schedule: Q04DX003 (oral), vehicle: saline): 167 % of control
T/C (endpoint: mean survival time, dose: 50.0 mg/kg/injection, schedule: Q04DX003 (oral), vehicle: water): 152 % of control and 158 % of control
T/C (endpoint: mean survival time, dose: 64.0 mg/kg/injection, schedule: Q01DX009 (ip), vehicle: saline with Tween-80): 120 % of control and 102 % of control and 107 % of control
T/C (endpoint: mean survival time, dose: 80.0 mg/kg/injection, schedule: Q01DX001 (ip), vehicle: water): 162 % of control
T/C (endpoint: mean survival time, dose: 100.0 mg/kg/injection, schedule: Q01DX001 (ip), vehicle: other): 205 % of control
T/C (endpoint: mean survival time, dose: 100.0 mg/kg/injection, schedule: Q01DX009 (oral), vehicle: saline): 94 % of control
T/C (endpoint: mean survival time, dose: 100.0 mg/kg/injection, schedule: Q04DX003 (ip), vehicle: distilled water + Tween-80): 163 % of control and 177 % of control
T/C (endpoint: mean survival time, dose: 100.0 mg/kg/injection, schedule: Q04DX003 (ip), vehicle: saline): 216 % of control
T/C (endpoint: mean survival time, dose: 100.0 mg/kg/injection, schedule: Q04DX003 (oral), vehicle: saline): 163 % of control and 179 % of control
T/C (endpoint: mean survival time, dose: 200.0 mg/kg/injection, schedule: Q01DX001 (ip), vehicle: other): 224 % of control
T/C (endpoint: mean survival time, dose: 200.0 mg/kg/injection, schedule: Q04DX003 (ip), vehicle: distilled water + Tween-80): 113 % of control and 104 % of control
T/C (endpoint: mean survival time, dose: 200.0 mg/kg/injection, schedule: Q04DX003 (oral), vehicle: other): 113 % of control
T/C (endpoint: mean survival time, dose: 200.0 mg/kg/injection, schedule: Q04DX003 (oral), vehicle: saline): 122 % of control and 102 % of control
T/C (endpoint: mean survival time, dose: 400.0 mg/kg/injection, schedule: Q01DX001 (ip), vehicle: other): 186 % of control
T/C (endpoint: mean survival time, dose: 400.0 mg/kg/injection, schedule: Q04DX003 (oral), vehicle: other): 96 % of control
T/C (endpoint: median survival time, dose: 10.0 mg/kg/injection, schedule: Q01DX001 (ip), vehicle: water): 106 % of control
T/C (endpoint: median survival time, dose: 20.0 mg/kg/injection, schedule: Q01DX001 (ip), vehicle: water): 117 % of control
T/C (endpoint: median survival time, dose: 80.0 mg/kg/injection, schedule: Q01DX001 (ip), vehicle: water): 153 % of control

CC(=O)OCCC/C(=C\c1ccc(Cl)cc1)[N+](=O)[O-]
T/C [3]: 100 % of control
T/C (endpoint: mean survival time, dose: 200.0 mg/kg/injection, schedule: Q01DX001 (ip), vehicle: saline): 102 % of control
T/C [4]: 98 % of control

N=C(Oc1ccccc1)C(Cl)(Cl)Cl
T/C (endpoint: mean survival time, dose: 50.0 mg/kg/injection, schedule: Q01DX009 (ip), vehicle: saline with Tween-80): 90 % of control
T/C (endpoint: mean survival time, dose: 100.0 mg/kg/injection, schedule: Q01DX009 (ip), vehicle: saline with Tween-80): 95 % of control
T/C (endpoint: mean survival time, dose: 200.0 mg/kg/injection, schedule: Q01DX009 (ip), vehicle: saline with Tween-80): 98 % of control
